The source of these data is a melting point compilation (Tetko et al.; mined from patent text by program, amines drawn as free bases though some values may be those of a salt).

SMILES strings stand for the structures. A value given as a limit tells only on which side of the number the result lay.

For orientation: melting point means the temperature of the solid-liquid transition. `CC(C)C(=O)NC(=O)c1cccc(-c2noc(-c3ccccc3F)n2)c1` gave a melting point of 183 to 184 °C. `O=C(CCl)N[C@@H]1CCCC[C@H]1NC(=O)CCl` (relative stereo) showed a melting point of 202 to 203 °C. `Cc1ncc2c(c1C#N)COc1ccccc1C2=O` had a melting point of 124 to 126 °C. Regarding `COc1cc(O)c(C(=O)c2ccccc2)c(Cl)c1`, the melting point lay in the range of 92 to 94 °C. Take `CCOC(=O)C(=O)NCc1ccccc1`: the melting point fell in the range of 47 to 50 °C. As for `COc1ccc(C=CC(=O)c2cccc(OC)c2OC)cc1F`, the melting point is 79.3 to 80.2 °C. `O=c1ccn(CCO)c(C(O)c2ccc3ccccc3c2)c1OCc1ccccc1` (stereo unspecified) displayed a melting point of 110 to 112 °C.

Compound `COc1ccc(N2C[C@@H](COS(C)(=O)=O)OC2=O)cc1` gave a melting point of 234 to 236 °C. As to `CCOC(=O)C1=C(C)Nc2nc(N3CCOCC3)nc(N3CCOCC3)c2C1c1cccnc1Cl` (stereo unspecified), the melting point was found to be 185 °C. The same measure for `COC(=O)c1ccc(OC)c2c1OCO2`: 122 to 124 °C; for `CCN1C(=O)CC(=O)N(CC)C1=O`: 52 °C.

Take `Cc1c(-c2ccccc2)oc2c(C(=O)NCCCO)cccc2c1=O`: the melting point lay in the range of 191 to 193 °C. `CN1CCC(Oc2ccccn2)(c2ccccc2)CC1` gave a melting point of 95 to 96 °C. As to `C=C(C)C(=O)OC(c1ccccc1)(c1ccccc1)c1ccncc1`, the melting point fell in the range of 98.5 to 99.5 °C. Compound `Clc1ccc(-n2nc3c(c2Br)CSCC3)cc1` registered a melting point of 144 to 145 °C. `CO[C@H](C)C(=O)N[C@H]1CC[C@H](CCN2CCN(c3nccc4c3CCO4)CC2)CC1` yielded a melting point of 159 °C. The compound `CCCC(=O)c1cnc2c(OCCCN3CCCC3)cccc2c1Nc1ccccc1C` showed a melting point of 101 to 103 °C. Consider `CCc1cccc(CC)c1NC(=S)NC(C)(C)CC`, for which the melting point is 85 to 87 °C. In turn, `O=C(c1ccc(Br)cc1)c1cccc([N+](=O)[O-])c1` showed a melting point of 104 to 105 °C.

`COC(=O)c1nc(-c2ccc(C)c(OC)c2F)cc(N)c1Cl` registered a melting point of 95 to 96 °C.

With `CC(O)(CCBr)C1CCCCC1` (stereo unspecified), the melting point was 31 to 33 °C. Take `COc1ccc2nc(C)n(-c3ccccc3)c2n1`: the melting point fell in the range of 114 to 116 °C. The figure for `CCOC(=O)CN(SN(C)C(=O)Oc1cccc2c1OC(C)(C)C2)C(=O)CC` is 108 to 109 °C; for `NS(=O)(=O)c1cc(C(=O)O)cc(NCc2ccccc2)c1-c1ccccc1` it is 221 to 222 °C. As for `COc1ccccc1-c1nn(C(C)C(=O)N(C)C)cc1Cl` (stereo unspecified), the melting point fell in the range of 74 to 77 °C. On to `C=C(c1ccn[nH]1)c1ccc(OCC(=O)OCC)c(Cl)c1Cl`, for which the melting point is 110 to 112 °C.

Consider `Cc1noc([C@@H](Cc2ccccc2)NC(=O)[C@@H](Cc2ccc3ccccc3c2)NC(=O)C=CC(C)(C)NC(=O)OC(C)(C)C)n1`, for which the melting point lay within 161 to 167 °C. In turn, `Cc1ccc2c3c(ccc2n1)OCC(CN1CC=C(c2c[nH]c4c(F)cccc24)CC1)O3` (stereo unspecified) returned a melting point of 205 to 210 °C. In turn, `CCCCOC(=O)NCCC(=O)O` showed a melting point of 50.5 °C. Compound `CCOC(=O)Oc1ccc(S(=O)(=O)N2c3cc(F)c(F)cc3-n3cccc3C2C)cc1` (stereo unspecified) registered a melting point of 89 to 91 °C.

`COC(=O)N(C(=O)c1ccc(C2=NOC(c3cc(Cl)cc(Cl)c3)(C(F)(F)F)C2)cc1C)c1cncnc1` (stereo unspecified): the melting point was 72 to 76 °C. Regarding `CCCC(CC(=O)Nc1cc(C(N)=O)ccc1C(C)(C)C)c1ccc(OC)cc1OC` (stereo unspecified), the melting point was found to be 192 °C. `COc1ccc(C=CC(=O)c2ccc(O)cc2)c(OC)c1` returned a melting point of 165 to 166 °C. `C=CCOc1ccc(C(=O)CC(C#N)(CCC)c2ccc(OC)cc2OC)cc1` (stereo unspecified) came in with a melting point of 86.1 to 87.1 °C. Take `N#Cc1cc([N+](=O)[O-])ccc1N1CCC(OC(=O)c2ccccc2)CC1`: the melting point was 143 to 145 °C. The compound `CCOCCOc1ccc(OCC(O)CNCCNC(=O)N2CCOCC2)c(Br)c1` (stereo unspecified) gave a melting point of 98 °C. `Cc1ccc([N+](=O)[O-])cc1Nc1nccc(-c2cccnc2)n1` returned a melting point of 186 to 188 °C. `O=[N+]([O-])c1ccc(S(=O)(=O)Nc2cccnc2Nc2ccccc2)cc1`: the melting point fell in the range of 191 to 192 °C. In the case of `CN(C)CCCC(C(N)=O)c1ccccc1-c1ccccc1` (stereo unspecified), the melting point is 108 to 110 °C. Take `CC(=O)c1ccc(Cl)c2c1OC(F)(F)O2`: the melting point was found to be 40 °C. With `CCCCOc1ccc2cc(Nc3ccc(O)cc3)ccc2c1`, the melting point is 138 to 139 °C. With `N#CC1(c2ccc(C(F)(F)F)cc2)C2CC3CC(C2)CC1C3` (stereo unspecified), the melting point was 122 to 124 °C. `CC1C(C(=O)O)CC2CC1C2(C)C` (single isomer, unassigned; (+)) gave a melting point of 128 °C.

`CCNC(=O)c1c(Cl)cccc1N(C)C(C)(C)C` registered a melting point of 106 to 108 °C.

The compound `Cc1cc2nc(SCC(F)(F)F)[nH]c2cc1C` displayed a melting point of 150 to 163 °C. For `CN1C(=O)C(NC(=O)Nc2cccc(Br)c2)N=C(c2ccccc2)c2ccccc21` (stereo unspecified), the melting point lay in the range of 194 to 196 °C. Consider `CCOC(=O)c1cnc(N2CCN(Cc3ccccc3)CC2)nc1O`, for which the melting point fell in the range of 151 to 153 °C. Turning to `CSC(=NC#N)N1CCc2nc(NC(=N)N)sc2C1`, the melting point lay within 224 to 227 °C.

Compound `Cc1cc(O)cc(C)c1-c1cccc2c1Oc1ccccc1S2` came in with a melting point of 116 °C. With `O=C(Nc1n[nH]c2nc(Oc3ccc(F)cc3F)ncc12)OCc1ccccc1`, the melting point fell in the range of 270 to 272 °C. The figure for `CN1Cc2c(C(N)=O)ncn2-c2ccsc2C1=O` is 294 to 296 °C.

With `Cc1nc(-c2ccc(=O)n(C(C)C)n2)c(-c2ccccc2)nc1O`, the melting point was above 250 °C.

For the compound `CCNc1cc(Cl)nc(C#N)c1N`, the melting point came out at 150 °C. Regarding `CC1(C)COC(C(=O)/C=C/[C@@H]2[C@H]3CC(=O)O[C@H]3C[C@H]2OC(=O)c2ccccc2)OC1`, the melting point was 141 °C. In turn, `Cc1ccc(-c2ccccc2S(N)(=O)=O)cc1` displayed a melting point of 122 °C. Consider `Clc1ccc(CC(OC2CCCC(Cn3ccnc3)O2)c2ccccc2)c(Cl)c1` (stereo unspecified), for which the melting point lay in the range of 118 to 120 °C. Regarding `Oc1ncc(Br)cc1C(F)(F)F`, the melting point was 160 to 162 °C.

As to `NS(=O)(=O)NCC=Cc1ccccc1`, the melting point is 118 °C. The figure for `O=C(CC(c1ccccc1)(c1ccccc1)c1ccccc1)N1CCC(O)(Cc2ccccc2)CC1` is 150 to 166 °C; for `O=C(O)c1ccc(C(=O)O)c(Cl)c1` it is 313 °C; for `Cc1cc(C2=NOC(c3cc(Cl)cc(Cl)c3)(C(F)(F)F)C2)ccc1Br` (stereo unspecified) it is 105 to 108 °C. On to `CN1C(=O)[C@H](NC(=O)Cc2ccc(C(F)(F)F)cc2)N=C(c2ccccc2)c2ccccc21`, for which the melting point lay in the range of 224 to 226 °C. Consider `C[C@H]1CN(c2c(F)cc3c(=O)c(C(=O)O)cn(CCF)c3c2F)C[C@H]1NC(=O)OC(C)(C)C` (relative stereo), for which the melting point was in the range of 217 to 219 °C.

As for `NC(=O)C1(CCCNC=O)c2ccccc2-c2ccccc21`, the melting point lay within 160 to 161 °C.

`Cc1sc(-c2ccc(F)cc2)nc1O`: the melting point was 173 to 174 °C. `CN1C(=O)[C@H](NC(=O)CCc2ccccc2Cl)N=C(c2ccccc2)c2ccccc21` returned a melting point of 158 to 160 °C. In turn, `CC(C)=CCOC(C)C1CCC2=C3C=CC4C(C)(C)C(O)CCC4(C)C3CCC21C` (stereo unspecified) had a melting point of 171 to 174 °C. The same measure for `CC(=O)Nc1nc2c(Oc3cc(N4CCN(C(C)c5ccc(F)cc5)CC4)ncn3)cccc2o1` (stereo unspecified): 200 °C; for `Cn1c(CC#N)ccc1C(=O)c1ccc(C(F)(F)F)cc1`: 95 to 97.5 °C; for `Cc1ccc(-n2cnc(OC(C)C(=O)O)n2)cc1` (stereo unspecified): 163 to 165 °C.

The compound `CC(=O)Oc1c(C2(OC(C)=O)C(=O)c3ccccc3C2=O)ccc(Cl)c1Cl` had a melting point of 129 to 136 °C.

With `COc1cccc(NC(=O)CN2C(=O)c3ccccc3C2=O)c1`, the melting point was 171 °C. The same measure for `O=c1c2ccccc2c(Br)cn1C1CN2CCC1CC2` (racemic): 208 to 209 °C. Consider `CC(C)CN1C(=O)[C@@H](CC(=O)O)O[C@H](c2ccccc2OC(C)C)c2cc(Cl)ccc21` (relative stereo), for which the melting point fell in the range of 146 to 149 °C. The same measure for `Cc1cc(C)c(/C=C2\C(=O)N(C(=O)CNC(=O)OCc3ccccc3)c3ccccc32)[nH]1`: 193 to 196 °C; for `O=C(O)CCCCCCCCCCSc1nc(-c2ccccc2)c(-c2ccccc2)[nH]1`: 193 to 195 °C; for `Cc1c(-c2ccccc2)on(CC(O)CCl)c1=O` (stereo unspecified): 82 to 83 °C.

As for `Brc1ccn2nc(N3CCOCC3)nc2c1`, the melting point fell in the range of 178 to 179 °C. The figure for `COc1ccc(CNc2nc(-c3ccccc3)c(-c3ccc(=O)n(C)n3)nc2C#N)cc1` is 166 to 168 °C; for `CC(=O)N1CCC2(CC1)Cn1cc([N+](=O)[O-])nc1O2` it is 232 to 234 °C.

In turn, `CN1Cc2ccccc2C(=O)c2cc(CC(=O)NO)ccc21` gave a melting point of 137 to 141 °C. For `CN1c2ccccc2CC1COc1ccc(CC2SC(=O)NC2=O)cc1` (stereo unspecified), the melting point was 46.1 to 48.9 °C. In the case of `O=C1N(CCCOCc2ccccc2)c2ccccc2C12COc1cc3c(cc12)CCO3` (stereo unspecified), the melting point was 112 to 113 °C. Compound `CC(O)(c1ccc(F)cc1)C1CCN(CC2CC(c3ccc4[nH]c(=O)oc4c3)=NO2)CC1` (stereo unspecified) registered a melting point of 125 to 134 °C.

`CNC(=O)c1ccnc(NC(=O)N2CCC3(CC2)Cc2ccccc2C3)c1` had a melting point of 229 to 231 °C. As for `O=[N+]([O-])c1ccc(Cl)cc1NN1CCOCC1`, the melting point came out at 155 °C. Consider `Nc1nc(Cl)cc(NCC2(CO)CCC2)n1`, for which the melting point lay in the range of 192 to 194 °C. As for `CCC=Cc1ncc(/C=C(\Cc2cccs2)c2nnn[nH]2)n1Cc1ccccc1Cl`, the melting point lay in the range of 182 to 184 °C.

Compound `O=C1CC(SSSSC2CC(=O)NC2=O)C(=O)N1` (stereo unspecified) gave a melting point of 108 to 114 °C.

`O=C1C=C(c2cccc(C(F)(F)F)c2)CO1` had a melting point of 124 to 125 °C.

The compound `CCOC(=O)Cc1ccc2c(c1)C(=O)c1ccccc1CS2` yielded a melting point of 98 to 100 °C.
